In patent US20020137781A1, “Preparation and use of enantiomer-pure 2,4-disubstituted oxazolines” (priority 1999, published 2002):

Assays:
Heliothis virescens [1] = test: Ovicidal effect on Heliothis virescens; type: in vivo; details: 400 ppm in acetone/water, eggs on filter paper immersed, after 6 days
Method: Eggs of Heliothis virescens deposited on filter paper are immersed briefly in a test solution comprising 400 ppm of the active ingredient to be tested in acetone/water. After the test solution has dried, the eggs are incubated in Petri dishes. After 6 days, the percentage hatching rate of the eggs is compared with that for untreated controls (% reduction in hatching rate).

Diabrotica balteata = test: Effect on Diabrotica balteata larvae; type: in vivo; details: 400 ppm spray on corn seedlings, second instar larvae, six days
Method: Corn seedlings are sprayed with an aqueous emulsion spray mixture containing 400 ppm of active ingredient. After drying of the spray deposit, the corn seedlings are colonised with 10 second instar larvae of Diabrotica balteata and placed in a plastic container. Six days later they are evaluated. The percentage reduction of the population (% response) is determined by comparing the number of dead larvae on the treated plants with those on the untreated plants.

Plutella xylostella = test: Effect against Plutella xylostella caterpillars; type: in vivo; details: 400 ppm spray on cabbage plants, third-instar caterpillars, three days
Method: Young cabbage plants are sprayed with an aqueous emulsion spray mixture containing 400 ppm of active ingredient. After the spray coating has dried on, the cabbage plants are colonised with 10 third-instar caterpillars of Plutella xylostella and placed in a plastic container. Three days later they are evaluated. The percentage reduction of the population and percentage reduction in feeding damage (% response) is determined by comparing the number of dead larvae and the extent of feeding damage on the treated plants with those on the untreated plants.

Heliothis virescens [2] = test: Ovicidal/larvicidal effect on Heliothis virescens; type: in vivo; details: 400 ppm spray on eggs laid on cotton, after 8 days
Description: Eggs of Heliothis virescens laid on cotton are sprayed with an aqueous emulsion spray mixture containing 400 ppm of active ingredient. After 8 days, the percentage hatching rate of the eggs and the survival rate of the caterpillars are compared with those for untreated controls (% reduction of population)

Tetranychus urticae = test: Ovicidal effect on Tetranychus urticae; type: in vivo; details: 400 ppm spray on bean plants colonised with eggs, 6 days at 25° C.
Method: Young bean plants are colonised with females of Tetranychus urticae, which are removed again after 24 hours. The plants colonised with eggs are sprayed with an aqueous emulsion spray mixture containing 400 ppm of active ingredient. The plants are incubated for 6 days at 25° C. and then evaluated. The percentage reduction of the population (% response) is determined by comparing the total number of dead eggs, larvae, and adults on the treated plants with those on the untreated plants.

Aphis craccivora = test: Effect against Aphis craccivora; type: in vivo; details: 400 ppm spray on pea seedlings, 20° C., 3 and 6 days
Method: Pea seedlings are infected with Aphis craccivora, subsequently sprayed with a spray mixture containing 400 ppm of active ingredient, and then incubated at 20° C. 3 and 6 days later, they are evaluated. The percentage reduction of the population (% response) is determined by comparing the number of dead aphids on the treated plants with those on the untreated plants.

Anthonomus grandis = test: Effect against Anthonomus grandis; type: in vivo; details: 400 ppm spray on cotton plants, adults, three days
Method: Young cotton plants are sprayed with an aqueous emulsion spray mixture containing 400 ppm of active ingredient. After the spray coating has dried on, the cotton plants are colonised with 10 adult Anthonomus grandis and placed in a plastic container. Three days later they are evaluated. The percentage reduction of the population and of the feeding damage (% response) is determined by comparing the total number of dead beetles and the feeding damage on the treated plants with those on the untreated plants.

Dermanyssus gallinae = test: Comparative in vitro effect on Dermanyssus gallinae
Method: 15 fed adult female mites of the genus Dermanyssus gallinae fixed on a plastic adhesive film are brought into contact with 50 μl of an aqueous suspension or emulsion of the test substance. The test is carried out with concentrations of 32, 10, 3.2, 1.0, 0.32 to 0.1 ppm. After drying, the film is stuck onto a glass disc. This creates a kind of air bubble around each mite, the lower surface of which is formed by the glass disc and the upper surface by a bulging of the adhesive film. This bubble contains sufficient air for the mite to avoid suffocating. After 5 days, the effect of the test substance is evaluated with the aid of a stereo-microscope by assessing the effect on mortality, egg deposition, egg quality, hatching rate, pupation rate, and development of protonymphs according to the following 4 criteria:
1. if 9 to 10 mites are dead, this indicates a lethal effect (M);
3. if 2 or more mites survive and produce eggs, but no larvae hatch from these eggs and no protonymphs develop, this indicates a development-inhibiting effect (H);
4. if 2 or more mites survive and lay the usual number of normal eggs, from which larvae hatch and develop into protonymphs, this indicates no activity.

Blattella germanica = test: Effect against Blattella germanica; type: in vivo; details: application rate of 2 g/m^2, nymphs exposed 2 hours, evaluated after 48 hours
Method: Sufficient acetonic solution (0.1%) of the active ingredient is added to a Petri dish for the quantity thereof to correspond to an application rate of 2 g/m^2. When the solvent has evaporated, 20 nymphs of Blattella germanica (last nymph stage) are placed in the dish and exposed to the action of the test substance for 2 hours. The nymphs are then anaesthetised with CO2, added to a fresh Petri dish and kept in the dark at 25° and 50 to 70% humidity. After 48 hours, the insecticidal effect is evaluated by determining the mortality rate.

## Fc1cccc(F)c1C1=NC(c2ccc(-c3ccc(C(F)(F)F)cc3)cc2)CO1 (single isomer, unassigned) [1.1, 2-(2,6-difluoro-phenyl)-4-(4′-trifluoromethylbiphenyl-4-yl)-4,5-dihydro-oxazole]
Heliothis virescens [1]
  % reduction in hatching rate (response): more than 80%
Diabrotica balteata
  percentage reduction of the population (% response): more than 80%
Plutella xylostella
  percentage reduction of the population and percentage reduction in feeding damage (% response): more than 80%
Heliothis virescens [2]
  % reduction of population (hatching rate of eggs and survival rate of caterpillars): more than 80%
Tetranychus urticae
  percentage reduction of the population (% response): more than 80%
Aphis craccivora
  percentage reduction of the population (% response): more than 80%
Anthonomus grandis
  percentage reduction of the population and of the feeding damage (% response): more than 80%
Dermanyssus gallinae; after 5 days
  concentration that completely inhibits the development of protonymphs: ≤ 0.0064 ppm
Dermanyssus gallinae; at the EC100 of the same table line, listed as Enantiomer A
  Type of activity: 1
Dermanyssus gallinae; fed adult female mites, evaluated after 5 days, listed as Enantiomer A
  EC100 (minimum dosage to reach 100% mortality): 0.0064 ppm
Dermanyssus gallinae; ratio of EC100
  activity relative to enantiomer B: 3000-5000 times
  activity relative to the racemate: more than 30 times
Blattella germanica
  mortality rate (response): more than 80%
